Assay results published in patent publication US10189887B2, “Polypeptides and uses thereof for reducing CD95-mediated cell motility” (INSERM (INSTITUT NATIONAL DE LA SANTÉ ET DE LA RECHERCHE …, priority 2014, dated 2019).

How the values were obtained:
[1] = test system: CD95-mediated Ca^2+ response; assay: Calcium response to cl-CD95L in Jurkat cells (Fura2/FuraPE3 video imaging); assay type: cell-based; details: Jurkat pre-incubated 1 hr, 10 μM peptide, 100 ng/ml cl-CD95L
Protocol: Cells were loaded with Fura2-AM (1 μM) at resting temperature for 30 min in Hank's Balanced Salt Solution (HBSS). After washing with HBSS, the cells were incubated for 15 min in the absence of Fura2-AM to complete de-esterification of the dye. Cells were placed in a thermostated chamber (37° C.) of an inverted epifluorescence microscope (Olympus IX70) equipped with a ×40, UApo/340-1.15 W water-immersion objective (Olympus), and fluorescence micrograph images were captured at 510 nm and at 12-bit resolution by a fast-scan camera (CoolSNAP fx Monochrome, Photometrics). To minimize UV light exposure, 4×4 binning function was used. Fura2-AM was alternately excited at 340 and 380 nm, and ratios of the resulting images (excitations at 340 and 380 nm and emission filter at 520 nm) were produced at constant intervals (5 s or 10 s according to the stimulus). […] Fluorescent images were pseudocolored using the IMD display mode in MetaFluor and assembled without further manipulation in Photoshop (Adobe). Raw data were acquired with MetaFluor and graphed in Origin (OriginLab). [Ca^2+]i was calculated using the following equation: [Ca^2+]i=Kd(R−Rmin)/(R−Rmax)×Sf2/Sf1, where Kd is the Fura2-AM dissociation constant at the two excitation wavelengths (F340/F380); Rmin is the fluorescence ratio in the presence of minimal calcium, obtained by chelating Ca^2+ with 10 mM EGTA; Rmax is the fluorescence ratio in the presence of excess calcium, obtained by treating cells with 1 μM ionomycin; Sf2 is the fluorescence of the Ca^2+-free form; and Sf1 is the fluorescence of the Ca^2+-bound form of Fura2-AM at excitation wavelengths of 380 and 340 nm, respectively. In some experiments cells were placed in a Ca^2+-free medium consisting of the HBSS described above in which CaCl2 was omitted and 100 μM EGTA was added in order to chelate residual Ca^2+ ions. This medium was added to the cells just before recording to avoid leak of the intracellular calcium stores.
T cells were loaded with Fura-PE3-AM (1 μM) at room temperature for 30 min in Hank's Balanced Salt Solution (HBSS). After washing, the cells were incubated for 15 min in the absence of Fura-PE3-AM to complete de-esterification of the dye. Cells were placed in the temperature controlled chamber (37° C.) of an inverted epifluorescence microscope (Olympus IX70) equipped with an ×40 UApo/340-1.15 W water-immersion objective (Olympus), and fluorescence micrograph images were captured at 510 nm and 12-bit resolution by a fast-scan camera (CoolSNAP fx Monochrome, Photometrics). To minimize UV light exposure, a 4×4 binning function was used. Fura-PE3 was alternately excited at 340 and 380 nm, and the ratios of the resulting images (emission filter at 520 nm) were produced at constant intervals (10 seconds). The Fura-PE3 ratio (Fratio 340/380) images were analyzed offline with Universal Imaging software, including Metafluor and Metamorph. Fratio reflects the intracellular Ca^2+ concentration changes. Each experiment was repeated 3 times, and the average of more than 20 single-cell traces was analyzed.

[2] = test system: CD95-mediated Ca^2+ response; assay: Calcium response to cl-CD95L in MEF; assay type: cell-based; details: MEFs pre-incubated 1 hr, 10 μM peptide; 100 ng/ml cl-CD95L
Protocol: Cells were loaded with Fura2-AM (1 μM) at resting temperature for 30 min in Hank's Balanced Salt Solution (HBSS). After washing with HBSS, the cells were incubated for 15 min in the absence of Fura2-AM to complete de-esterification of the dye. Cells were placed in a thermostated chamber (37° C.) of an inverted epifluorescence microscope (Olympus IX70) equipped with a ×40, UApo/340-1.15 W water-immersion objective (Olympus), and fluorescence micrograph images were captured at 510 nm and at 12-bit resolution by a fast-scan camera (CoolSNAP fx Monochrome, Photometrics). To minimize UV light exposure, 4×4 binning function was used. Fura2-AM was alternately excited at 340 and 380 nm, and ratios of the resulting images (excitations at 340 and 380 nm and emission filter at 520 nm) were produced at constant intervals (5 s or 10 s according to the stimulus). […] Fluorescent images were pseudocolored using the IMD display mode in MetaFluor and assembled without further manipulation in Photoshop (Adobe). Raw data were acquired with MetaFluor and graphed in Origin (OriginLab). […]

[3] = test system: Akt serine 473 (PI3K signaling pathway); assay: Akt phosphorylation in PBLs exposed to cl-CD95L; assay type: cell-based, human; details: peptide pre-incubation
Protocol: Cells were lyzed for 30 minutes at 4° C. in lysis buffer (25 mM HEPES pH 7.4, 1% v/v Triton X-100, 150 mM NaCl, 2 mM EGTA supplemented with a mix of protease inhibitors (Sigma-Aldrich)). Protein concentration was determined by the bicinchoninic acid method (PIERCE, Rockford, Ill., USA) according to the manufacturer's protocol. Proteins were separated on a 12% SDS-PAGE and transferred to a nitrocellulose membrane (GE Healthcare, Buckinghamshire, England). The membrane was blocked 15 minutes with TBST (50 mM Tris, 160 mM NaCl, 0.05% v/v Tween 20, pH 7.8) containing 5% w/v dried skimmed milk (TBSTM). Primary antibody was incubated overnight at 4° C. in TBSTM. The membrane was intensively washed (TBST) and then the peroxydase-labeled anti-rabbit or anti-mouse (SouthernBiotech, Birmingham, Ala., US) was added for 45 minutes. The proteins were visualized with the enhanced chemiluminescence substrate kit (ECL, GE Healthcare).

Th17 cell accumulation = assay: In vivo administration of cl-CD95L: cell accumulation in peritoneal cavity and spleen; design: species or system C57BL/6 mice; details: 24 hours later
Protocol: Female C57BL/6 mice (Harlan UK) aged between 8-10 weeks were placed in groups of 6 and administered IP. Twenty-four hours following injection, mice were sacrificed and periteonial cavities were washed with 5 ml of PBS/2% FCS, blood smears were prepared, and spleens were collected. Blood smears and cytospins of periteonal cells (PECs) were stained with Giemsa and differential counts performed. Single cell suspensions of spleens and PECs were prepared, cell counts performed, CD4+CD62− T-cells were isolated with Miltenyi microbeads and number of cells determined by trypan blue exclusion. For experiments where animals received TAT-mCID or control peptides, 800 μg (40 mg/kg) was injected IP 2 hrs prior to administration of cl-CD95L. All mouse experiments were performed under ethical approval from the University of Nottingham local animal ethics committee and adhering to UK Home Office guidelines under the Project License 40/3412.
Single cell suspensions of spleens and PECs were prepared as described above. RNA was extracted from CD4 T-cells using phenol/chloroform. cDNA was prepared using the Promega GO-Script Reverse Transcription Kit and used in Real-Time PCR. Briefly, cDNA samples were subject to Taqman assay performed on a Roche Lightcycler. Results are reported as expression levels were calculated using the Δct method relative to HPRT.

TAT-CID: cell penetrating peptide linking the 36-amino acid-stretch of CID (CD95 residues 175 to 210) to the HIV-TAT sequence; SEQ ID NO: 6 (RKKRRQRRRKRKEVQKTCRKHRKENQGSHESPTLNPETVAINLSD; TAT-CID)
calcium response to cl-CD95L [1]: abolished the induction of the CD95-mediated Ca^2+ signal
calcium response to cl-CD95L ([1]; listed as TAT CID 175-210): greatly reduced the calcium response
initial phase of the calcium response to cl-CD95L [2]: blocked it
Akt phosphorylation at serine 473 [3]: inhibited Akt phosphorylation at its serine 473
total cell counts from the PEC (accumulation of T lymphocytes) (Th17 cell accumulation; 40 mg/kg two hours prior to IP cl-CD95L (200 ng)): abolished the CD95-mediated accumulation of T lymphocytes
IL17 production in the peritoneal cavity (Th17 cell accumulation; 40 mg/kg two hours prior to IP cl-CD95L (200 ng), ELISA): prevented
levels of IFN-γ versus control peptide (Th17 cell accumulation; 40 mg/kg two hours prior to IP cl-CD95L): no differences were noted
